From patent publication US9452980B2, “Substituted benzamides” (Hoffmann-La Roche Inc., priority 2009, dated 2016)
Where a name gives a salt, the structure may show the parent alone. Read-outs that look alike come from different tables or passages of the source.

Legend:
mouse TAAR1 = mouse TAAR1 (Mus musculus (Mouse), UniProt Q923Y8); experiment: Radioligand binding assay on mouse TAAR1; settings: mouse TAAR1, HEK-293 membranes, first value of cell mouse/rat; read-out: Ki (μM) mouse
Procedure: (§1) For the construction of expression plasmids the coding sequences of human, rat and mouse TAAR1 were amplified from genomic DNA essentially as described by Lindemann et al.. The Expand High Fidelity PCR System (Roche Diagnostics) was used with 1.5 mM Mg^2+ and purified PCR products were cloned into pCR2.1-TOPO cloning vector (Invitrogen) following the instructions of the manufacturer. PCR products were subcloned into the pIRESneo2 vector (BD Clontech, Palo Alto, Calif.), and expression vectors were sequence verified before introduction in cell lines.
(§2) HEK293 cells (ATCC #CRL-1573) were cultured essentially as described by Lindemann et al. (2005). For the generation of stably transfected cell lines HEK293 cells were transfected with the pIRESneo2 expression plasmids containing the TAAR coding sequences (described above) with Lipofectamine 2000 (Invitrogen) according to the instructions of the manufacturer, and 24 hrs post transfection the culture medium was supplemented with 1 mg/ml G418 (Sigma, Buchs, Switzerland). After a culture period of about 10 d clones were isolated, expanded and tested for responsiveness to trace amines (all compounds purchased from Sigma) with the cAMP Biotrak Enzyme immunoassay (EIA) System (Amersham) following the non-acetylation EIA procedure provided by the manufacturer.
Radioligand Binding Assay on Mouse TAAR1
(§3) Membrane Preparation and Radioligand Binding.
(§4) HEK-293 cells stably expressing mouse TAAR1 were maintained at 37° C. and 5% CO2 in DMEM high glucose medium, containing fetal calf serum (10%, heat inactivated for 30 min at 56° C.), penicillin/streptomycin (1%), and 375 μg/ml geneticin (Gibco). Cells were released from culture flasks using trypsin/EDTA, harvested, washed twice with ice-cold PBS (without Ca^2+ and Mg^2+), pelleted at 1,000 rpm for 5 min at 4° C., frozen and stored at −80° C. Frozen pellets were suspended in 20 ml HEPES-NaOH (20 mM, pH 7.4) containing 10 mM EDTA and homogenized with a Polytron (PT 6000, Kinematica) at 14,000 rpm for 20 s. The homogenate was centrifuged at 48,000×g for 30 min at 4° C. Subsequently, the supernatant was removed and discarded, and the pellet resuspended in 20 ml HEPES-NaOH (20 mM, pH 7.4) containing 0.1 mM EDTA using the Polytron (20 s at 14,000 rpm). This procedure was repeated and the final pellet resuspended in HEPES-NaOH containing 0.1 mM EDTA and homogenized using the Polytron. Typically, aliquots of 2 ml membrane portions were stored at −80° C. With each new membrane batch the dissociation constant (Kd) was determined via a saturation curve. […] Nonspecific binding was defined as the amount of ^3[H]—(S)-4-[(ethyl-phenyl-amino)-methyl]-4,5-dihydro-oxazol-2-ylamine bound in the presence of 10 μM unlabeled ligand. All compounds were tested at a broad range of concentrations (10 pM to 10 μM) in duplicates. […] The 96 deep well plates were incubated for 1 hr at 4° C. Incubations were terminated by rapid filtration through Unifilter-96 plates (Packard Instrument Company) and glass filters GF/C (Perkin Elmer) presoaked for 1 hr in polyethylenimine (0.3%) and washed 3 times with 1 ml of cold binding buffer. After addition of 45 μl of Microscint 40 (PerkinElmer) the Unifilter-96 plate was sealed and after 1 hr the ratioactivity counted using a TopCount Microplate Scintillation Counter (Packard Instrument Company).

rat TAAR1 = rat TAAR1 (Rattus norvegicus (Rat), UniProt Q923Y9); experiment: Radioligand binding assay on rat TAAR1; settings: read-out: Ki (μM) rat
Procedure: as §1, §2
Radioligand Binding Assay on Rat TAAR1
as §3
as §4, with “rat” for “mouse”

[1] = rat TAAR1, HEK-293 membranes, second value of cell mouse/rat

Sequence of mouse TAAR1 (Q923Y8 whole entry): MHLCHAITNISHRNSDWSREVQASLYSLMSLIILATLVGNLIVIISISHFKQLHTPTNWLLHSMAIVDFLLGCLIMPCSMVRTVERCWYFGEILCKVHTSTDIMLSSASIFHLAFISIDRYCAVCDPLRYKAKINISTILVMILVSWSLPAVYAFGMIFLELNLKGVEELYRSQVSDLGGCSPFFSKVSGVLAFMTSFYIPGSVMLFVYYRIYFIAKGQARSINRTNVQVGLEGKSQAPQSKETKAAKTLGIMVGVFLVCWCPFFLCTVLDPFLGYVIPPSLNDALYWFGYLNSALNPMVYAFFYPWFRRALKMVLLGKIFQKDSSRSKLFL
Sequence of rat TAAR1 (Q923Y9 whole entry): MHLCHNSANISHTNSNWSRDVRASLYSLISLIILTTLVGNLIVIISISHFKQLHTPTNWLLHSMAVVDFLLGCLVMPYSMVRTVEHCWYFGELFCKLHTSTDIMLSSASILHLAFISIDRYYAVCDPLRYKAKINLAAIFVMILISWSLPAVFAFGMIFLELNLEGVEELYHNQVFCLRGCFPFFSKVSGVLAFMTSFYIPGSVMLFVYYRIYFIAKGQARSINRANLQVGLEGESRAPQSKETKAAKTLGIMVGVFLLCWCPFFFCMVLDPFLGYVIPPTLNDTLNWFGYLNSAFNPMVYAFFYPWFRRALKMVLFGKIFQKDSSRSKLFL

Row | Ki (mouse TAAR1) | Ki (rat TAAR1; [1]) | SMILES | further results
1 | – | 0.29 µM | O=C(Cc1ccccc1)Nc1ccc(C2CCNC2)cc1 (racemic) [Example 12, (RS)-2-Phenyl-N-(4-pyrrolidin-3-yl-phenyl)-acetamide hydrochloride] | –
2 | – | 0.645 µM | CN(C(=O)Nc1ccc(C2CCNC2)cc1)c1ccccc1 (racemic) [Example 14, (RS)-1-Methyl-1-phenyl-3-(4-pyrrolidin-3-yl-phenyl)-urea] | –
3 | 0.32 µM | – | CC(C(=O)Nc1ccc(C2CCNC2)cc1)c1ccccc1 (racemic) [Example 25, (RS)-2-Phenyl-N—((RS)-4-pyrrolidin-3-yl-phenyl)-propionamide] | –
4 | 0.0006 µM | – | CCN1CCC(c2ccc(NC(=O)c3ccc(Cl)cc3)cc2)C1 (racemic) [Example 33, (RS)-4-Chloro-N-[4-(1-ethyl-pyrrolidin-3-yl)-phenyl]-benzamide] | –
5 | – | 0.324 µM | O=C(Nc1ccc(C2CCN(c3ccccc3)C2)cc1)c1ccc(Cl)cc1 (racemic) [Example 36, (RS)-4-Chloro-N-[4-(1-phenyl-pyrrolidin-3-yl)-phenyl]-benzamide] | –
6 | – | 0.0985 µM | COCc1ccc(C(=O)Nc2ccc(C3CCNC3)cc2)cc1 (racemic) [Example 51, (RS)-4-Methoxymethyl-N-(4-pyrrolidin-3-yl-phenyl)-benzamide hydrochloride] | –
7 | 0.0035 µM | – | CN1CCOC(c2ccc(NC(=O)c3ccc(Cl)cc3)cc2)C1 (racemic) [Example 80, (RS)-4-Chloro-N-[4-(4-methyl-morpholin-2-yl)-phenyl]-benzamide] | –
8 | 0.0227 µM | – | O=C(Nc1ccc(COC2CCNC2)cc1)c1ccc(Cl)cc1 (racemic) [Example 145, (RS)-4-Chloro-N-[4-(pyrrolidin-3-yloxymethyl)-phenyl]-benzamide hydrochloride] | –
9 | 0.0663 µM | – | O=C(Nc1ccc(C2CCNC2)cn1)c1ccc(Cl)cc1 (racemic) [Example 181, (RS)-4-Chloro-N-(5-(pyrrolidin-3-yl)pyridin-2-yl)benzamide hydrochloride] | –
10 | 0.0526 µM | – | COc1ccc(C(=O)Nc2ccc(C3CCNC3)cc2)cc1 (racemic) [Example 183, (RS)-4-Methoxy-N-(4-(pyrrolidin-3-yl)phenyl)benzamide hydrochloride] | –
11 | 0.153 µM | – | O=C(Nc1ccc(C2CCCNC2)cc1)c1ccccc1 (racemic) [Example 184, (RS)—N-(4-(piperidin-3-yl)phenyl)benzamide hydrochloride] | –
12 | – | 0.0123 µM | O=C(Nc1ccc(C2CCCNC2)cn1)c1ccc(Cl)cc1 (racemic) [Example 187, (RS)-4-Chloro-N-(5-(piperidin-3-yl)pyridin-2-yl)benzamide hydrochloride] | –
13 | – | 0.0677 µM | Cc1cnc(C(=O)Nc2ccc([C@@H]3CCCNC3)cc2)cn1 [Example 247, (S)-5-Methyl-N-(4-(piperidin-3-yl)phenyl)pyrazine-2-carboxamide hydrochloride] | –
14 | – | 0.0226 µM | O=C(NCc1ccc([C@H]2CNCCO2)cc1)c1ccc(Cl)cc1 [Example 317, (S)-4-Chloro-N-(4-(morpholin-2-yl)benzyl)benzamide hydrochloride] | –

Continued, compound first:

Row | SMILES | Ki (mouse TAAR1) | Ki (rat TAAR1; [1]) | further results
15 | C[C@@H](C(=O)Nc1ccc(C2CCNC2)cc1)c1ccccc1 (mixture of isomers) [Example 29, (R)-2-Phenyl-N—((RS)-4-pyrrolidin-3-yl-phenyl)-propionamide] | 0.102 µM | – | –
16 | C[C@H](C(=O)Nc1ccc(C2CCNC2)cc1)c1ccccc1 (mixture of isomers) [Example 30, (S)-2-Phenyl-N—((RS)-4-pyrrolidin-3-yl-phenyl)-propionamide] | 0.053 µM | – | –
17 | O=C(NCc1ccccc1)Nc1ccc(C2CCNC2)cc1 (racemic) [Example 9, (RS)-1-Benzyl-3-(4-pyrrolidin-3-yl-phenyl)-urea hydrochloride] | – | 1.11 µM | –
18 | O=C(Nc1ccc(C2CCNC2)cc1)NC1CCCCC1 (racemic) [Example 10, (RS)-1-Cyclohexyl-3-(4-pyrrolidin-3-yl-phenyl)-urea hydrochloride] | – | 0.309 µM | –
19 | O=C(Nc1ccc(C2CCNC2)cc1)N1CCOCC1 (racemic) [Example 21, (RS)-Morpholine-4-carboxylic acid (4-pyrrolidin-3-yl-phenyl)-amide hydrochloride] | – | 0.359 µM | –
20 | O=C(Nc1ccc(C2CCNC2)cc1)N1CCCCC1 (racemic) [Example 28, (RS)-Piperidine-1-carboxylic acid (4-pyrrolidin-3-yl-phenyl)-amide] | 0.434 µM | – | –
21 | CC1(c2ccc(NC(=O)c3ccccc3)cc2)CCNC1 (racemic) [Example 41, (RS)—N-[4-(3-Methyl-pyrrolidin-3-yl)-phenyl]-benzamide] | – | 2.98 µM | –
22 | COc1cccc(C(C)C(=O)Nc2ccc(C3CCNC3)cc2)c1 (racemic) [Example 67, (RS)-2-(3-Methoxy-phenyl)-N—((RS)-4-pyrrolidin-3-yl-phenyl)-propionamide] | 0.499 µM | – | –
23 | O=C(Nc1ccc(C2CNCCO2)cc1)c1ccc(Cl)cc1 (racemic) [Example 71, (RS)-4-Chloro-N-(4-morpholin-2-yl-phenyl)-benzamide hydrochloride] | – | 0.0121 µM | –
24 | O=C(Nc1ccc(C2CCNC2)cc1)OCCc1ccc(OC(F)(F)F)cc1 (racemic) [Example 125, (RS)-(4-Pyrrolidin-3-yl-phenyl)-carbamic acid 2-(4-trifluoromethoxy-phenyl)-ethyl ester] | – | 0.0007 µM | –
25 | O=C(Nc1ccc(C2CNCCO2)cc1)c1ccc(Cl)c(Cl)c1 (racemic) [Example 147, (RS)-3,4-Dichloro-N-(4-morpholin-2-yl-phenyl)-benzamide hydrochloride] | 0.001 µM | – | –
26 | O=C(Nc1ccc(C2CNCCO2)cc1)c1ccc(Cl)cn1 (racemic) [Example 148, (RS)-5-Chloro-pyridine-2-carboxylic acid (4-morpholin-2-yl-phenyl)-amide hydrochloride] | 0.0393 µM | – | –
27 | O=C(Nc1ccc(C2CNCCO2)cc1)C1CCN(c2ccncn2)CC1 (racemic) [Example 287, (RS)—N-(4-(Morpholin-2-yl)phenyl)-1-(pyrimidin-4-yl)piperidine-4-carboxamide dihydrochloride] | – | 0.379 µM | –
28 | O=C(NCc1ccc([C@H]2CNCCO2)cc1)c1ccc(Cl)nc1 [Example 319, (S)-6-Chloro-N-(4-(morpholin-2-yl)benzyl)nicotinamide hydrochloride] | – | 0.0206 µM | –
29 | O=C(NCc1ccc([C@H]2CNCCO2)cc1)c1ccc(C(F)(F)F)nc1 [Example 320, (S)—N-(4-(Morpholin-2-yl)benzyl)-6-(trifluoromethyl)nicotinamide hydrochloride] | – | – | Ki (rat TAAR1): 0.0249 µM
